Assay results published in PubChem BioAssay (NCI).
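A five-concentration, 48-hour dose response in 96-well plates underlies each endpoint, interpolated linearly between surrounding concentrations. TGI: concentration producing complete growth inhibition.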

Key:
Assay in all cases: NCI anticancer screen, dose series, 48 h
EKVX NSCLC = test system: EKVX NSCLC
MDA-N = test system: MDA-N
HS 578T breast = test system: HS 578T breast
ACHN renal = test system: ACHN renal
HCT-15 colon = test system: HCT-15 colon
SK-MEL-28 melanoma = test system: SK-MEL-28 melanoma
MOLT-4 leukemia = test system: MOLT-4 leukemia
NCI-H460 lung = test system: NCI-H460 lung
SF-268 CNS = test system: SF-268 CNS
SK-MEL-5 melanoma = test system: SK-MEL-5 melanoma
MALME-3M melanoma = test system: MALME-3M melanoma
UACC-62 melanoma = test system: UACC-62 melanoma
NCI-H522 lung = test system: NCI-H522 lung
K-562 leukemia = test system: K-562 leukemia
OVCAR-4 ovarian = test system: OVCAR-4 ovarian
RPMI-8226 leukemia = test system: RPMI-8226 leukemia
IGROV1 ovarian = test system: IGROV1 ovarian
RXF 393 renal = test system: RXF 393 renal

SMILES	TGI (EKVX NSCLC)	TGI (MDA-N)	TGI (HS 578T breast)	TGI (ACHN renal)	TGI (HCT-15 colon)	TGI (SK-MEL-28 melanoma)	TGI (MOLT-4 leukemia)	TGI (NCI-H460 lung)	TGI (SF-268 CNS)	TGI (SK-MEL-5 melanoma)	TGI (MALME-3M melanoma)	TGI (UACC-62 melanoma)	TGI (NCI-H522 lung)	TGI (K-562 leukemia)	TGI (OVCAR-4 ovarian)	TGI (RPMI-8226 leukemia)	TGI (IGROV1 ovarian)	TGI (RXF 393 renal)
C=CC(C)CCC(C/C=C(\C)CCC=C(C)C)C(=C)CCCC(C)C (configuration not stated)	> 100 µM	> 100 µM	> 100 µM	> 100 µM	> 100 µM	> 100 µM	> 100 µM	> 100 µM	> 100 µM	> 100 µM	> 100 µM	> 100 µM	> 100 µM	> 100 µM	> 100 µM	> 100 µM	> 100 µM	> 100 µM
COc1cc2c(cc1OCc1ccccc1)NC(=S)[C@@H]1CCCN1C2=S	> 100 µM	> 100 µM	> 100 µM	> 100 µM	> 100 µM	> 100 µM	> 100 µM	> 100 µM	> 100 µM	> 100 µM	> 100 µM	> 100 µM	> 100 µM	> 100 µM	> 100 µM	> 100 µM	> 100 µM	> 100 µM
Cc1c(C)c(S(=O)(=O)N(CCCN)OCCCN)c(C)c2c1OC(C)(C)C2	31.3 µM	33.6 µM	40.3 µM	> 100 µM	> 100 µM	> 100 µM	42.7 µM	> 100 µM	> 100 µM	> 100 µM	42.1 µM	> 100 µM	30.6 µM	> 100 µM	> 100 µM	> 100 µM	45.8 µM	48.9 µM
C=CCOC(=O)[C@@H]1C[C@@H](OC(C)(C)C)CN1C(=O)[C@@H]1[C@H]2OC(C)(C)O[C@H]2CN1C(=O)OCC1c2ccccc2-c2ccccc21	10.6 µM	33.4 µM	42.5 µM	30.1 µM	39.4 µM	34.6 µM	34.4 µM	23.6 µM	40.1 µM	37 µM	39.2 µM	34.5 µM	1.39 µM	> 56.9 µM	34.1 µM	32.3 µM	37.6 µM	24.7 µM
COc1cc(/C=C/c2cc(/C=C/c3ccc(O)c(OC)c3)oc(=O)c2)ccc1O	> 36.2 µM	> 100 µM	> 85.3 µM	15.4 µM	> 34.4 µM	> 100 µM	> 26.2 µM	7.63 µM	> 39.7 µM	> 100 µM	10.7 µM	18.5 µM	> 23.9 µM	> 28 µM	13.6 µM	> 20.5 µM	19.9 µM	1.08 µM
Cc1cc(NS(=O)(=O)c2ccc(Nc3c4ccccc4nc4ccc(C(=O)Nc5ccc(S(N)(=O)=O)cc5)cc34)cc2)no1	> 100 µM	> 100 µM	> 100 µM	> 100 µM	> 100 µM	> 100 µM	> 100 µM	> 100 µM	> 100 µM	> 100 µM	> 100 µM	> 100 µM	> 100 µM	> 100 µM	> 100 µM	> 100 µM	> 100 µM	> 100 µM
COc1cc(N(CCC#N)CCC#N)ccc1/C(N=Nc1ccccc1)=N/NC(=O)c1cc(Br)ccc1O	69.2 µM	> 100 µM	> 100 µM	81.6 µM	68.2 µM	87.6 µM	38.3 µM	51.1 µM	> 100 µM	42.3 µM	> 100 µM	46.7 µM	67.9 µM	42.7 µM	64.4 µM	44.6 µM	35 µM	70.9 µM
S=c1sc2nc(Cl)nc(Cl)c2s1	31.8 µM	24.8 µM	60.4 µM	26.9 µM	30.7 µM	30.4 µM	> 29.3 µM	30.8 µM	34.4 µM	21.6 µM	23.2 µM	27.1 µM	25.2 µM	28.1 µM	30.6 µM	9.67 µM	27.7 µM	26 µM
CN1CCC23c4c5ccc(O)c4OC2c2[nH]c4ccccc4c2CC3(O)C1C5 (configuration not stated)	> 100 µM	44.9 µM	70.9 µM	65.1 µM	> 100 µM	28.4 µM	93.6 µM	> 100 µM	> 100 µM	27.1 µM	36.8 µM	53.5 µM	> 100 µM	44.4 µM	> 100 µM	55 µM	> 100 µM	66.1 µM
C=CC[C@@]1(C)CCCCCCCCC[C@@](C)(CC=C)C1=O	> 100 µM	> 100 µM	42.9 µM	> 100 µM	> 100 µM	> 100 µM	43.2 µM	59.1 µM	> 100 µM	29.5 µM	58.1 µM	67.5 µM	59.4 µM	74.5 µM	> 100 µM	66.7 µM	> 100 µM	32.6 µM
CC#CCCN(CC#N)Cc1ccccc1	> 100 µM	> 100 µM	> 100 µM	48 µM	> 100 µM	> 100 µM	> 100 µM	> 100 µM	> 100 µM	> 100 µM	> 100 µM	32.9 µM	> 100 µM	> 100 µM	> 100 µM	> 100 µM	> 100 µM	> 100 µM
Cc1ccc(/C=C/C(=N/NC(=O)N/N=C(/C=C/c2ccc(C)cc2)C(C)(C)CN2CCCCC2)C(C)(C)CN2CCCCC2)cc1	6.69 µM	2.88 µM	3.29 µM	4.23 µM	3.25 µM	3.18 µM	0.345 µM	3.08 µM	4.64 µM	3.08 µM	3.07 µM	4.02 µM	3.04 µM	1.68 µM	4.26 µM	0.897 µM	3.71 µM	2.68 µM
C[C@]12[C@@H]3CC[C@H]1[C@@H](OC(=O)Nc1cc([N+](=O)[O-])cc([N+](=O)[O-])c1)C(=O)N2CC3	> 100 µM	> 100 µM	> 100 µM	> 100 µM	> 100 µM	> 100 µM	> 100 µM	> 100 µM	> 100 µM	> 100 µM	> 100 µM	> 100 µM	> 100 µM	> 100 µM	> 100 µM	> 100 µM	> 100 µM	> 100 µM
O=C(c1cccc(C(=O)c2ccc3c4c(cccc24)C(=O)N(c2ccccc2)C3=O)c1)c1ccc2c3c(cccc13)C(=O)N(c1ccccc1)C2=O	> 100 µM	> 100 µM	> 100 µM	> 100 µM	> 100 µM	> 100 µM	> 100 µM	> 100 µM	> 100 µM	> 100 µM	> 100 µM	> 100 µM	> 100 µM	> 100 µM	> 100 µM	> 100 µM	> 100 µM	> 100 µM
O=c1[nH]n(Cc2ccccn2)c2ccc([N+](=O)[O-])cc12	> 100 µM	> 100 µM	> 100 µM	> 100 µM	> 100 µM	> 100 µM	> 100 µM	> 100 µM	> 100 µM	> 100 µM	> 100 µM	> 100 µM	> 100 µM	> 100 µM	> 100 µM	> 100 µM	> 100 µM	> 100 µM
COc1cc2cc(C(=O)N3CC(CCl)c4ccccc43)[nH]c2c(OC)c1OC (configuration not stated)	> 100 µM	> 100 µM	> 100 µM	> 100 µM	> 100 µM	> 100 µM	> 100 µM	> 57.4 µM	> 100 µM	> 100 µM	> 100 µM	> 100 µM	> 100 µM	> 41.3 µM	> 100 µM	> 100 µM	> 100 µM	> 100 µM
O=C(/C=C/c1ccc(O)c(O)c1O)OCCc1ccccc1	> 100 µM	34 µM	> 100 µM	> 100 µM	51.9 µM	> 100 µM	53.8 µM	42.7 µM	> 100 µM	> 100 µM	> 100 µM	> 100 µM	54.9 µM	37.3 µM	29.5 µM	52.6 µM	84.5 µM	98.2 µM
C=CCNC1=C2C[C@@H](C)C[C@@H](OC)[C@H](OC(=O)CN)[C@H](C)/C=C(\C)[C@@H](OC(N)=O)[C@H](OC)/C=C\C=C(/C)C(=O)NC(=CC1=O)C2=O	21.7 µM	13 µM	80.1 µM	19.6 µM	22.5 µM	29.7 µM	> 36.1 µM	18.3 µM	29.7 µM	17.9 µM	21.8 µM	12 µM	18.8 µM	> 47.4 µM	29.2 µM	> 52.3 µM	15.5 µM	17 µM
COC(=O)[C@@H]1C[C@H]([Se]c2ccccc2)CN1C(=O)OCc1ccccc1	> 100 µM	68.2 µM	> 100 µM	> 100 µM	> 100 µM	69.2 µM	66.8 µM	86.1 µM	> 100 µM	30.6 µM	77.2 µM	35.8 µM	> 100 µM	> 100 µM	> 100 µM	71.8 µM	> 100 µM	84.3 µM
